The values below come from patent US9428753B2, “Use of LXR antagonists for treatment of side effects of elevated glucocorticoid levels” (The Governing Council of the University of Toronto, priority 2013, dated 2016).

For data set [1], the target named is T1, LXRβ (Homo sapiens, UniProt P55055).
T1 sequence (P55055 222-460 limits assumed): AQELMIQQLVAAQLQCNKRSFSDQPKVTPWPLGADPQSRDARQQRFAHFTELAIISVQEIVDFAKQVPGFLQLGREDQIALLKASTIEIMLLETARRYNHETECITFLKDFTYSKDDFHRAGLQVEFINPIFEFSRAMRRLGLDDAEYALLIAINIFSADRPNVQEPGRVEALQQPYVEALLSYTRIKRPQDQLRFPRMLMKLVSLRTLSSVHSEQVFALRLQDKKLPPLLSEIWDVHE
Put plainly: GAL4-LXRβ / UAS-luc transfection assay in mouse primary hepatocytes. From the text: (§1) RLU=relative luciferase units.

Data set [2] has as its system IL-1β. Put plainly: IL-1β gene expression in LPS activated mouse primary macrophages (RT-QPCR). The class given is cell-based. As to the method: (§2) The expression of genes involved in immune response IL-1β, IL-6 and GILZ was measured following an overnight treatment with Dex 100 nM, 250 nM T0901317 (T09), and/or 10 μM GSK2033 in LPS activated WT, LXR α −/− and LXRβ −/− mouse primary macrophages, by RT-QPCR. Data represent the Avg±SD, N=3. *P<0.05 by One way ANOVA, Student Newman Keuls.
(§3) To assess the ability of GSK2033 to affect GR-mediated inflammatory suppression, a number of gene expression studies were conducted on primary macrophages isolated from WT, LXRα−/− and LXRβ−/− mice. Cells were pre-treated with 10 ng/ml lipopolysaccharide (LPS) for 6 hrs (to induce a potent inflammatory response) followed by treatment of 100 nM Dex, 10 μM GSK2033 and/or 250 nM T09 for 18 hrs.

The test system of data set [3] is GILZ. Briefly: GILZ gene expression in LPS activated mouse primary macrophages (RT-QPCR). The class given is cell-based. Particulars: 100 nM Dex + 10 μM GSK2033, 18 hrs. As to the method: as §2, §3
Data set [4] concerns mouse primary hepatocytes. Put plainly: Glucose production (glucose output) in mouse primary hepatocytes. Format: cell-based. On the procedure:
T09 treatment was used as a positive control for LXR activity. (D) Glucose output over 24 hrs from LXRα−/− and LXRβ−/− mouse primary hepatocytes following Dex 100 nM±10 μM GSK2033 treatment. (E) Glucose output over 8 hrs from WT hepatocytes following Dex 500 nM±10 μM GSK2033 treatments. Data represent the Avg±SD, N=3. *P<0.05 by One way ANOVA, Student Newman Keuls. Legend: V=vehicle, G=GSK2033 (LXR antagonist); D=dexamethasone (GR agonist); and T09=T0901317 (LXR agonist).
While not wishing to be limited by theory, subsequent to conducting these initial studies it was realized that 24 hour incubation of hepatocytes in gluconeogenic media may be too long. In the literature, for this type of assay, primary heptocytes are usually incubated up to 12 hours. As such, for subsequent studies of the present application, WT cells were treated with 500 nM Dex for 8 hours to be able to measure detectable levels of glucose in the media.

Data set [5] relates to LXRα−/− mice. Put plainly: In vivo 5 day Dex ± GSK2033 co-treatment study. Details: species or system mouse. As to the method: LXRα−/− mice were treated with Vehicle (Veh), Dex (2.5 mg/kg) b.i.d. or GSK2033 40 mg/kg (once a day) along with Dex b.i.d. for 5 days. (A) Plasma glucose levels were measured by a colorimetric kit (Wako). (B) Spleen weights were measured at the time of sacrifice, and are presented normalized to body weight. (C) Liver Pepck, FOXO1, Pgc 1α, FGF21, GR and LXRβ gene expression measured by QPCR. Data represent the Avg±SEM, N=2-5. *P<0.05 by One way ANOVA, Student Newman Keuls.
Having observed promising results with GSK2033 co-treatment with Dex in-vitro (GSK2033-mediated suppression of GC-induced gluconeogenic side effects without affecting desirable immune suppression); a study was conducted, in which whole body LXRα−/− mice were treated with vehicle (Veh), 2.5 mg/kg bid (subcutaneous injection) Dex or Dex+40 mg/kg GSK2033 (once a day intraperitoneal injection) for 5 days, and sacrificed at lights on.

In data set [6] the target is T2, LXRα (Homo sapiens, UniProt Q13133).
T2 sequence (Q13133 209-447 limits assumed): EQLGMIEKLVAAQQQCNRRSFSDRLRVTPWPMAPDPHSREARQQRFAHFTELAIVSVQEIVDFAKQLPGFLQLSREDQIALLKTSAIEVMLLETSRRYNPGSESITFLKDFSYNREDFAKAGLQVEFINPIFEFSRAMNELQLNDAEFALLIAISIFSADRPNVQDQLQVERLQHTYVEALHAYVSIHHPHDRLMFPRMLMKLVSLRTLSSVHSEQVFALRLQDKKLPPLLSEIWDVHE
Briefly: cell-based.

The test system of data set [7] is G6Pc. Briefly: G6Pc gene expression in mouse primary hepatocytes. Particulars: LXRα−/− hepatocytes.
In data set [8] the test system is LXRα−/− mice. Put plainly: In vivo pilot study: T09 with GSK2033, liver LXR target genes.
Data set [9] deals with T3, GR (Homo sapiens, UniProt P04150).
T3 sequence (P04150 524-758 limits assumed): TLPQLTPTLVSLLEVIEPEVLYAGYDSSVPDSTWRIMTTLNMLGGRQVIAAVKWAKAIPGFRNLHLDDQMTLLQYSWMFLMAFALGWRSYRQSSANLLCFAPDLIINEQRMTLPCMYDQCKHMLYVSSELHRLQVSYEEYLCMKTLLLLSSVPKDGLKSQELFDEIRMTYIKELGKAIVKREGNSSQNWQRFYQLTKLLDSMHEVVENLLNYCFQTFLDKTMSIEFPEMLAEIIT
Briefly: GAL4-GR / UAS-luc transfection assay in mouse primary hepatocytes. Particulars: GAL4-GR activated with 100 nM Dex. The class given is cell-based. Details: co-transfecting UAS-reporter and GAL4-LBD of the nuclear receptors LXRα, LXRβ and GR; GAL4 (fusion partner); expressed in transfected cells; host or cells: mouse primary hepatocytes.
From the text: as §1

Where [10] appears, read: across the treatment groups (Veh, Dex, Dex+GSK2033).
Where [11] appears, read: T09 5 mg/kg i.p. + GSK2033 20 or 40 mg/kg i.p.

Entries after “also recorded” stand apart in the source; their conditions may differ.

`Cc1cc(C)c(S(=O)(=O)N(Cc2ccc(-c3cccc(S(C)(=O)=O)c3)cc2)Cc2ccc(C(F)(F)F)o2)c(C)c1` [GSK2033, 2,4,6-trimethyl-N-((3′-(methylsulfonyl)-[1,1′-biphenyl]-4-yl)methyl)-N-((5-(trifluoromethyl)furan-2-yl)methyl)benzenesulfonamide]: the IC50 in [1] was determined as 292 nM; in data set [6], 660 nM. For the same compound, the “right-shift of LXRβ IC50, primary hepatocytes vs HEK293” value in [1] is approximately 10 fold. The “selectivity for LXRβ vs. LXRα” value in [1] (in hepatocytes) is listed as 2.5 fold. In [2] (LPS activated macrophages, 250 nM T09 + 10 μM GSK2033), the “T09 mediated suppression of IL-1β under GSK2033 co-treatment” value is “antagonized”. For the same compound, the “Dex-mediated IL-1β repression under GSK2033 co-treatment” value in data set [2] (WT, LXRα−/− and LXRβ−/− macrophages, LPS 10 ng/ml 6 hrs, 100 nM Dex + 10 μM GSK2033, 18 hrs) was “unaffected”. Also, the “GR-mediated induction of GILZ under GSK2033 co-treatment” value in data set [3] is “unaffected”. Besides, the “glucose secretion (glucose output)” value in data set [4] (LXRα−/− hepatocytes, 100 nM Dex + 10 μM GSK2033, 24 hours) amounted to 1.2 fold; in [4] (WT hepatocytes, 500 nM Dex + 10 μM GSK2033, 8 hours), 1.25 fold. The “spleen size (weight normalized to body weight)” value in data set [5] (Dex 2.5 mg/kg bid + GSK2033 40 mg/kg, 5 days, vs Veh) is on record as “significantly smaller”. Further, in data set [5] (Dex+GSK2033 group), the “liver FOXO 1 gene induction” value was “normalized”. Further, the “liver Pepck gene induction” value in data set [5] (Dex+GSK2033 group) is reported as “normalized”. In addition, in [5] (setting [10]), the “liver GR gene expression” value is reported as “did not change”. Besides, the “liver LXR gene expression” value in data set [5] (setting [10]) is reported as “did not change”. Further, the G6Pc expression in data set [7] (Example 6, 100 nM Dex + 10 μM GSK2033) stood at 4.9 fold; in data set [7] (Example 6, 10 μM Cortisol + 10 μM GSK2033) it was 7.5 fold; in data set [7] (Example 6, 10 μM Prednisone + 10 μM GSK2033) it was 9.8 fold; in data set [7] (Example 6, 10 μM Triamcinolone acetonide + 10 μM GSK2033), 8.6 fold; in data set [7] (Example 8, 100 nM Dex + 10 μM LXR antagonist), 5.3 fold. The “liver ABCG5 activation by T09” value in data set [8] (setting [11]) is on record as “dose dependent inhibition; also recorded: dose dependent repression”. In addition, in [8] (setting [11]), the “liver ABCG8 activation by T09” value was “dose dependent inhibition; also recorded: dose dependent repression”. Also, the toxicity entry in data set [8] (higher dose of GSK2033 (40 mg/kg)) was “no toxicity”. Further, in data set [9], the GR activity result was “unaffected; also recorded: did not antagonize”.
